{"source": "patent US12508300B2", "about": "“Acylated GLP-1 derivative” (Sciwind Biosciences Co., Ltd., priority 2019, dated 2025)", "system": "CD-1 mice", "assay_type": "in vivo", "details": "mouse, in vivo, sc, 0.15 mg/kg", "procedure": "Twenty-eight healthy female CD-1 mice aged 4-6 weeks are selected and divided into 4 groups, and they are injected subcutaneously with M4, M5, M7 and M0 at a dose of 0.15 mg/kg body weight.", "note": "Where two headings read alike, the source gives them in different places. *1 amine or outer side, *2 acyl side, *3 side chain or, on linkers, in order; H or OH if unused. Where a SMILES comes first, the peptide text is derived from it. Side-chain parts run from the residue outwards. The star is where a group is joined. C18 diacid = O=C(O)CCCCCCCCCCCCCCCCC(=O)*; γGlu = O=C(O)[C@H](CCC(=O)[*:2])N[*:1]; AEEA = NCCOCCOCC(=O)O"}
{"smiles": "CC[C@H](C)[C@H](NC(=O)[C@H](Cc1ccccc1)NC(=O)[C@H](CCC(=O)O)NC(=O)[C@H](CCCNC(=N)N)NC(=O)[C@H](C)NC(=O)[C@H](C)NC(=O)[C@H](CCCCNC(=O)COCCOCCNC(=O)COCCOCCNC(=O)CC[C@H](NC(=O)CCCCCCCCCCCCCCCCC(=O)O)C(=O)O)NC(=O)[C@H](CCC(=O)O)NC(=O)[C@H](CCC(=O)O)NC(=O)[C@H](CC(C)C)NC(=O)[C@H](Cc1ccc(O)cc1)NC(=O)[C@H](CO)NC(=O)[C@H](CO)NC(=O)[C@@H](NC(=O)[C@H](CC(=O)O)NC(=O)[C@H](CO)NC(=O)[C@@H](NC(=O)[C@H](Cc1ccccc1)NC(=O)[C@@H](NC(=O)CNC(=O)[C@H](CCC(=O)O)NC(=O)[C@@H](NC(=O)[C@@H](N)Cc1c[nH]cn1)C(C)C)[C@@H](C)O)[C@@H](C)O)C(C)C)C(=O)N[C@@H](C)C(=O)N[C@@H](Cc1c[nH]c2ccccc12)C(=O)N[C@@H](CC(C)C)C(=O)N[C@H](C(=O)N[C@@H](CCCNC(=N)N)C(=O)NCC(=O)N[C@@H](CCCNC(=N)N)C(=O)NCC(=O)O)C(C)C", "note": "[M2, N-ε^23-[2-(2-[2-(2-[2-(2-[4-(17-carboxyheptadecanoylamino)-4(s)-carboxybutyrylamino]ethoxy)ethoxy]acetylamino)ethoxy]ethoxy)acetyl](Val^8Glu^22Lys^23Arg^26,34-GLP-1 (7-37)) peptide] (H-HVEGTFTSDVSSYLEEK([AEEA-AEEA-γGlu-C18 diacid])AAREFIAWLVRGRG-OH; N-terminus and C-terminus assumed)", "values": [{"measurement": "Inhibition rate (blood glucose)", "setting": "6 h", "result": 34.29, "unit": "%"}, {"measurement": "Inhibition rate (blood glucose)", "setting": "30 h", "result": 29.51, "unit": "%"}, {"measurement": "Inhibition rate (blood glucose)", "setting": "54 h", "result": 27.23, "unit": "%"}, {"measurement": "Inhibition rate (blood glucose)", "setting": "78 h", "result": 21.97, "unit": "%"}, {"measurement": "Inhibition rate (blood glucose)", "setting": "102 h", "result": 10.15, "unit": "%"}]}
